US5789434A, “Derivatives of substituted 4-biarylbutyric acid as matrix metalloprotease inhibitors” (priority 1995, dated 1998)
Like-named read-outs stand apart in the source and are kept apart here.

Experiments:
Format in all cases: biochemical
[1] = molecular target: T1, MMP-2 (Homo sapiens, UniProt P08253); experiment: Automated MMP Profiling Assay, MMP-2 fluorogenic
T1 sequence (P08253 110-660): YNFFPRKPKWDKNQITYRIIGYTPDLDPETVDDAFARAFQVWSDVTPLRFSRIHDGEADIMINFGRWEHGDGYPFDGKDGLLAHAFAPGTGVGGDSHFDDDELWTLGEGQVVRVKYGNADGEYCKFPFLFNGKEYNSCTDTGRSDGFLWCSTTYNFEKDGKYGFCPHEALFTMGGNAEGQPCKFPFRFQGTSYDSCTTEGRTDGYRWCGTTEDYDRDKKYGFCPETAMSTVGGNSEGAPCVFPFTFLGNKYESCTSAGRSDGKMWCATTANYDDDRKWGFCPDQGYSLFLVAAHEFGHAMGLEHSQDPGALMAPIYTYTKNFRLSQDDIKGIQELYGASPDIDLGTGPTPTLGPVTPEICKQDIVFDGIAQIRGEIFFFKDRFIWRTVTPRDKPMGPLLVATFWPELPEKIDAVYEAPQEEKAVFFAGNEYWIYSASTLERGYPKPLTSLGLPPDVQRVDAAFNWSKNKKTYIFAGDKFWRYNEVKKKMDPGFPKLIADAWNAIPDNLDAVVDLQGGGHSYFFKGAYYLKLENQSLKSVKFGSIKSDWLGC

[2] = molecular target: T2, MMP-3 (Homo sapiens, UniProt P08254); experiment: Automated MMP Profiling Assay, MMP-3 fluorogenic; settings: for IC50: 96-well automated, P218
T2 construct: Truncated Prostromelysin-257 was expressed in a soluble form in E.coli; made in house; host or cells: E. coli
T2 sequence (P08254 100-274 limits assumed): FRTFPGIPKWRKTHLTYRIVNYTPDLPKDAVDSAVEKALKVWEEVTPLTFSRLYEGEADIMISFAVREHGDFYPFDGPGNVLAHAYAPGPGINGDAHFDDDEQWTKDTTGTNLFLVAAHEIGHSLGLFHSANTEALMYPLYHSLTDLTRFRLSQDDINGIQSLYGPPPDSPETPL
Source text: This assay with each invention compound was run with the three enzymes MMP-3, MMP-9 and MMP-2 in parallel as adapted for a 96-well microtitre plate using a Hamilton A® workstation.

[3] = molecular target: T3, MMP-9 (Homo sapiens, UniProt P14780); experiment: Automated MMP Profiling Assay, MMP-9 fluorogenic; settings: for IC50: 96-well automated, P218
T3 construct: from tissue; host or cells: human polymorphonuclear leukocytes (PMN) from whole blood (New York Blood Center), PMA-stimulated supernatant
T3 sequence (P14780 107-707 limits assumed): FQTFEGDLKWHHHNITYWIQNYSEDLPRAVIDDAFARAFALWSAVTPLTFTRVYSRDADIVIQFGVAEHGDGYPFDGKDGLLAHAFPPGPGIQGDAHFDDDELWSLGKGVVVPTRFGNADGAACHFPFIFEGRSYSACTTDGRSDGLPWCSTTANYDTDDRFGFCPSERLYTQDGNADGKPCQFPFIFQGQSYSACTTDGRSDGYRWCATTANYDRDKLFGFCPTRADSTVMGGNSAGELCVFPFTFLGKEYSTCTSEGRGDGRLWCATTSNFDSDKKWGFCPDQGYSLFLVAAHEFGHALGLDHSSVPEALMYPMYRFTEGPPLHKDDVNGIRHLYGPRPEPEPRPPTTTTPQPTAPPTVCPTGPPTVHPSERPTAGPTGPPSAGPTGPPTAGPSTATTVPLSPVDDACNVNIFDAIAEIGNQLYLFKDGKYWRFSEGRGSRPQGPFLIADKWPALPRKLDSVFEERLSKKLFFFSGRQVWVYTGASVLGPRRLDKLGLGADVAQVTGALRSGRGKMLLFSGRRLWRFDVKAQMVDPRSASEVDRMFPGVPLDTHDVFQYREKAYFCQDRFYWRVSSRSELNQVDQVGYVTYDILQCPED

[4] = 96-well automated, P218, read-out: MMP-2 Fluorogenic IC50 (profiling)

Row | SMILES | IC50 [1, 4] [nM] | IC50 [2] [nM] | IC50 [3] [nM] | inhibition at 5 µM [3] [%] | IC50 [1] [nM] | inhibition at 5 µM ([1]; at 5 μM) [%] | inhibition at 5 µM ([2]; at 5 μM) [%]
1 | O=C(O)c1ccc(CCC(CC(=O)c2ccc(-c3ccc(Cl)cc3)cc2)C(=O)O)cc1 (stereo not drawn) [Example 153, [1,1'-Biphenyl]-4-butanoic acid, α-[2-(4-carboxyphenyl)ethyl]-4'-chloro-γ-oxo-] | 127 | 594 | 1010 |  |  |  | 
2 | COc1ccc(-c2ccc(C(=O)CC(CCc3ccccc3)C(=O)O)cc2)cc1 (stereo not drawn) [Example 154, [1,1'-Biphenyl]-4-butanoic acid, 4'-methoxy-γ-oxo-α-(2-phenylethyl)-] | 37 | 470 | 875 |  |  |  | 
3 | O=C(CC(CCc1ccccc1)C(=O)O)c1ccc(-c2ccc(O)cc2)cc1 (stereo not drawn) [Example 155, [1,1'-Biphenyl]-4-butanoic acid, 4'-hydroxy-γ-oxo-α-(2-phenylethyl)-] | 50 | 777 | > 1250 |  |  |  | 
4 | CCOc1ccc(-c2ccc(C(=O)CC(CCc3ccccc3)C(=O)O)cc2)cc1 (stereo not drawn) [Example 156, [1,1'-Biphenyl]-4-butanoic acid, 4'-ethoxy-γ-oxo-α-(2-phenylethyl)-] | 21 | 126 | 145 |  |  |  | 
5 | CCCOc1ccc(-c2ccc(C(=O)CC(CCc3ccccc3)C(=O)O)cc2)cc1 (stereo not drawn) [Example 157, [1,1'-Biphenyl]-4-butanoic acid, γ-oxo-α-(2-phenylethyl)-4'-propoxy-] | 35 | 111 | 142 |  |  |  | 
6 | CCCCCOc1ccc(-c2ccc(C(=O)CC(CCc3ccccc3)C(=O)O)cc2)cc1 (stereo not drawn) [Example 158, [1,1'-Biphenyl]-4-butanoic acid, γ-oxo-4'-(pentyloxy)-α-(2-phenylethyl)-] | 32 | 37 | > 500 |  |  |  | 
7 | CCCCCCOc1ccc(-c2ccc(C(=O)CC(CCc3ccccc3)C(=O)O)cc2)cc1 (stereo not drawn) [Example 159, [1,1'-Biphenyl]-4-butanoic acid, 4'-(hexyloxy)-γ-oxo-α-(2-phenylethyl)-] | 42 | 116 | > 1250 |  |  |  | 
8 | CCCCOc1ccc(-c2ccc(C(=O)CC(CCc3ccccc3)C(=O)O)cc2)cc1 (stereo not drawn) [Example 160, [1,1'-Biphenyl]-4-butanoic acid, 4'-butoxy-γ-oxo-α-(2-phenylethyl)-] | 42 | 147 | 1060 |  |  |  | 
9 | O=C(CC(CCc1ccccc1)C(=O)O)c1ccc(-c2ccc(OCc3ccccc3)cc2)cc1 (stereo not drawn) [Example 161, [1,1'-Biphenyl]-4-butanoic acid, γ-oxo-α-(2-phenylethyl)-4'-(phenylmethoxy)-] | 38 | 46 | 1560 |  |  |  | 
10 | CCCCCOc1ccc(-c2ccc(C(=O)CC(CCc3cccc(I)c3)C(=O)O)cc2)cc1 (stereo not drawn) [Example 162, [1,1'-Biphenyl]-4-butanoic acid, α-[2-(3-iodophenyl)ethyl]-γ-oxo-4'-(pentyloxy)-] | 22 | 181 |  | 8 |  |  | 
11 | O=C(CC(CCc1cccc(I)c1)C(=O)O)c1ccc(-c2ccc(OCc3ccccc3)cc2)cc1 (stereo not drawn) [Example 163, [1,1'-Biphenyl]-4-butanoic acid, α-[2-(3-iodophenyl)ethyl]-γ-oxo-4'-(phenylmethoxy)-] | 17 | 64 |  | 18 |  |  | 
12 | CCCCCOc1ccc(-c2ccc(C(=O)CC(CCc3cccc(C(=O)N(CC)CC)c3)C(=O)O)cc2)cc1 (stereo not drawn) [Example 164, [1,1'-Biphenyl]-4-butanoic acid, α-[2-[3-[(diethylamino)carbonyl]phenyl]ethyl]-γ-oxo-4'-(pentyloxy)-] | 3.9 | 30 | 82 |  |  |  | 
13 | CCN(CC)C(=O)c1cccc(CCC(CC(=O)c2ccc(-c3ccc(OCc4ccccc4)cc3)cc2)C(=O)O)c1 (stereo not drawn) [Example 165, [1,1'-Biphenyl]-4-butanoic acid, α-[2-[3-[(diethylamino)carbonyl]phenyl]ethyl]-γ-oxo-4'-(phenylmethoxy)-] | 3 | 13 | 55 |  |  |  | 
14 | O=C(c1ccc(-c2ccc(Cl)cc2)cc1)[C@H]1CCN(C(=O)OCc2ccccc2)[C@@H]1C(=O)O [Example 166, 1,2-Pyrrolidinedicarboxylic acid, 3-[(4'-chloro[1,1'-biphenyl]-4-yl)carbonyl]-, 1-(phenylmethyl) ester, (2S-trans)-] |  | 103 | 381 |  | 35 |  | 
15 | O=C(c1ccc(-c2ccc(Cl)cc2)cc1)[C@@H]1CCN(C(=O)OCc2ccccc2)[C@H]1C(=O)O [Example 167, 1,2-Pyrrolidinedicarboxylic acid, 3-[(4'-chloro[1,1'-biphenyl]-4-yl)carbonyl],1-(phneylmethyl) ester, (2R-trans)-] |  |  |  | 23 |  | 31 | 18
16 | O=C(c1ccc(-c2ccc(Cl)cc2)cc1)[C@H]1CCN(C(=O)NCc2ccccc2)[C@@H]1C(=O)O [Example 168, L-Proline, 3-[(4'-chloro[1,1'-biphenyl]-4-yl)carbonyl]-1-[[(phenylmethyl)amino]carbonyl]-, trans-] | 15 | 49 | 163 |  |  |  | 
17 | O=C(c1ccc(-c2ccc(Cl)cc2)cc1)[C@H]1CCN(C(=O)CCc2ccccc2)[C@@H]1C(=O)O [Example 169, L-Proline, 3-[(4'-chloro[1,1'-biphenyl]-4-yl)carbonyl]-1-(1-oxo-3-phenylpropyl)-, trans-] | 80 | 245 | 1080 |  |  |  | 
18 | O=C(c1ccc(-c2ccc(Cl)cc2)cc1)[C@H]1CCN(C(=O)Cc2ccccc2)[C@@H]1C(=O)O [Example 170, L-Proline, 3-[(4'-chloro[1,1'-biphenyl]-4-yl)carbonyl]-1-(phenylacetyl)-, trans-] | 103 | 296 | 1800 |  |  |  | 
19 | CC(C)(C)CC(=O)N1CC[C@H](C(=O)c2ccc(-c3ccc(Cl)cc3)cc2)[C@H]1C(=O)O [Example 171, L-Proline, 3-[(4'-chloro[1,1'-biphenyl]-4-yl)carbonyl]-1-(3,3-dimethyl-1-oxobutyl)-, trans-] | 452 | 663 | 3520 |  |  |  | 
20 | CC(C)COC(=O)N1CC[C@H](C(=O)c2ccc(-c3ccc(Cl)cc3)cc2)[C@H]1C(=O)O [Example 172, 1,2-PYrrolidinecarboxylic acid, 3-[(4'-chloro[1,1'-biphenyl]-4-yl)carbonyl]-, 1-(2-methylpropyl) ester, (2S-trans)-] | 175 | 456 | 1930 |  |  |  | 
21 | O=C(c1ccc(-c2ccc(Cl)cc2)cc1)[C@H]1CCN(C(=O)Nc2ccccc2)[C@@H]1C(=O)O [Example 173, L-Proline, 3-[(4'-chloro[1,1'-biphenyl]-4-yl)carbonyl]-1-[(phenylamino)carbonyl]-, trans-] | 104 | 119 | 814 |  |  |  | 
22 | O=C(CC(CCN1C(=O)c2ccccc2C1=O)C(=O)O)c1ccc(-c2ccc(Br)cc2)cc1 (stereo not drawn) [Example 270] | 1.4 | 6 | 1.6 |  |  |  | 
23 | O=C(CC(CCN1C(=O)c2ccccc2C1=O)C(=O)O)c1ccc(-c2ccc(OCc3ccccc3)cc2)cc1 (stereo not drawn) [Example 271, 2H-Isoindole-2-butanoic acid, 1,3-dihydro-1,3-dioxo-α-[2-oxo-2-[4'-(phenylmethoxy)[1,1'-biphenyl]-4-yl]ethyl]-] | 1.4 | 5.2 | 7.9 |  |  |  | 
24 | CCCCCOc1ccc(-c2ccc(C(=O)CC(CCN3C(=O)c4ccccc4C3=O)C(=O)O)cc2)cc1 (stereo not drawn) [Example 272] | 2.28 | 9.2 | 10.8 |  |  |  | 
